{"source": "patent US20240139167A1", "about": "“LYSOSOME-ASSOCIATED MEMBRANE PROTEIN TARGETING COMPOUNDS AND USES THEREOF” (HADASIT MEDICAL RESEARCH SERVICES AND DEVELOPMENT LTD., priority 2021, published 2024)", "key": {"LAMP1": {"target": "T1, LAMP1 (Homo sapiens, UniProt P11279)", "T1 construct": "endogenous in cells", "T1 sequence (P11279 29-417)": "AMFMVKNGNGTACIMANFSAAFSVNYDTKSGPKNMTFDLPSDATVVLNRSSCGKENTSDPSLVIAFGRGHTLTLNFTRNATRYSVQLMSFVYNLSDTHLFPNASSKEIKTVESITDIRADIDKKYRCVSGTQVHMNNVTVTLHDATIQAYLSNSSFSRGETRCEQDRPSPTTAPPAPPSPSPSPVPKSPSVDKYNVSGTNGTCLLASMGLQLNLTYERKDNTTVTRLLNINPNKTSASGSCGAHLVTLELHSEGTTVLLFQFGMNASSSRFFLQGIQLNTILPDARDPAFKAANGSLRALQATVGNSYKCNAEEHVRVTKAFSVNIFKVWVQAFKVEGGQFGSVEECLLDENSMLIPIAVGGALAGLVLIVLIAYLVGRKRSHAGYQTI", "experiment": "Cellular thermal shift assay (CETSA)", "assay_type": "binding", "source_text": "FIGS. 5A-5E include images of experiments showing hetero-assembly forms around Compound 1 and not around endogenous molecules as shown by the liquid crystals formed in experiments 1-3 (5A); image of STRING network of targets at the interactome of Compound 1 (5B); cellular thermal shift assay (CETSA) of different targets of the Compound 1 hetero-assembly (5C); surface plasmon resonance sensograms of binding of Compound 1 to LAMP1 (5D); sensogram experiments consisting of association and dissociation at the indicated concentration ranges and pH values were then conducted.\nThe inventors have investigated the mechanism of action of 144DG11. To that end, the inventors first decided to determine its molecular target. Nematic protein organization technique (NPOT, Inoviem, Ltd.) was applied to homogenates of APBD patient fibroblasts. The NPOT analysis has discovered protein hetero assemblies uniquely generated around 144DG11 only when it was added to the cell homogenates (FIG. 5A). The next step in this analysis has identified the interactome of protein targets interacting with 144DG11 in APBD patients' fibroblasts. […] In the search for a putative binding site for Compound 1 in LAMP1, the inventors have analyzed the N- and C-terminal subdomains of its luminal domain (residues A29-R195 and S217-D378, respectively), which have a similar topology. […]"}, "APBD primary fibroblasts": {"test_system": "APBD primary fibroblasts", "experiment": "Autophagic flux (LC3II/LC3I with lysosomal inhibitors, p62)", "assay_type": "cell-based, human", "source_text": "(§1) FIGS. 6A-6E include bar graphs of autophagic flux, determined by the extent of lysosomal inhibitors-dependent increase in the ratio of lipidated to non-lipidated LC3 (LC3II/LC3I) (6A); representative TEM images of liver tissue from 9.5 month old Gbe^ys/ys mice treated with Compound 11, or 5% DMSO vehicle (6B), G: Glycogen (alpha particles) and polyglucosan (structures with variable electron densities), L: Lysosomes, M: Mitochondria; right panel: lysosomal glycogen stain was quantified by ImageJ “count particle” tool; micrograph of LAMP1 knocked down and control APBD primary skin fibroblasts treated or not with Compound 1 and lysosomal inhibitors (LI) and quantification of 3 experiments and results of Student's t-tests. *, p<0.1; **, p<0.05; ***, p<0.01 (6C); graphs of lysosomal pH changes determined in APBD primary fibroblasts transduced with lentiviruses encoding for GFP or GFP-shLAMP1 and treated or not with Compound 1 for 24 h and confocal microscope images of cells treated with Lysosensor and stained for PAS (6D); and bar graph of ATP production rate assay in LAMP1-KD and GFP (Control) cells treated for 24 h (chronic) or on assay (acute) with Compound 1 (6E)."}, "Gbe^ys/ys mice": {"test_system": "Gbe^ys/ys mice", "experiment": "Transmission electron microscopy of liver sections, lysosomal glycogen", "assay_type": "in vivo", "settings": "9.5 month old mice", "source_text": "as §1\nLiver tissue was minced and fixed in a solution containing 2% paraformaldehyde, 2.5% glutaraldehyde (EM grade) in 0.1 M sodium cacodylate buffer pH 7.3 for 2 hours at RT, followed by 24 h at 4 ° C. […]"}, "Agl^−/− mice": {"test_system": "Agl^−/− mice", "experiment": "Blood metabolic panel in Agl^-/- mice (GSD3)", "assay_type": "in vivo", "settings": "6-months mice treated for 3 months", "source_text": "FIG. 18 includes a vertical bar graph showing blood metabolic panel based on n=5-6 6-months wildtype or Agl^−/− mice treated as indicated for 3 months."}, "[1]": {"test_system": "microglia cells from brains of 5XFAD mice", "experiment": "LC3, p62 and PAS staining of microglia from AD model", "assay_type": "cell-based", "settings": "50 μM, 24 h", "method": "FIGS. 19A-19B include fluorescent micrographs showing microglia cells which were isolated from the brains of AD modeling 5XFAD mice by CD11b magnetic beads. Microglia were then incubated for 24 h with (treated), or without (untreated) 50 μM 144DG11, fixed and stained for the autophagic substrates LC3 (19A) and p62 (19B) and for glycogen by PAS, all as indicated. Reduction in the levels of both LC3 and p62 indicate induction of autophagy which degrades these substrates.\nBeing the most pro-inflammatory tissue in the brain, microglia are currently at the epicenter of innovative therapeutic research for AD. Moreover, as neuroinflammation is now accepted as the main pathogenic factor in AD and as activation of microglia autophagy and mitophagy is a leading therapeutic strategy (see, for instance, Eshraghi et al., (2021)), 144DG11 holds promise as a potential AD therapeutic."}}, "data": [{"smiles": "COCCN(Cc1sccc1C)C(=O)c1cc(C)nc(O)c1", "note": "[Compound 1]", "values": [{"measurement": "increase in LAMP1 levels", "setting": "LAMP1", "result": 1.2, "unit": "fold"}, {"measurement": "interaction with LAMP1 (not other protein targets; 6 of 8 NPOT targets tested)", "setting": "LAMP1", "result": "directly interacts"}, {"measurement": "autophagic flux (sensitivity of LC3ii/LC3i ratio to lysosomal inhibitors)", "setting": "APBD primary fibroblasts", "result": "increased autophagic flux"}, {"measurement": "level of the autophagy substrate p62", "setting": "APBD primary fibroblasts", "result": "lowering the level of the autophagy substrate p62"}, {"measurement": "lysosomal glycogen in liver sections", "setting": "Gbe^ys/ys mice", "result": "decrease in lysosomal glycogen"}, {"measurement": "blood triglycerides", "setting": "Agl^−/− mice", "result": "decreased"}, {"measurement": "glycogen levels", "setting": "[1]", "result": "did not lower glycogen levels"}, {"measurement": "total LC3 and p62", "setting": "[1]", "result": "decrease"}]}]}
